Among the data in US8563542B2 (Cyclacel Limited, priority 2007, dated 2013) are IC50 values, retold here.

SMILES strings stand for the structures. Read-outs that look alike come from different tables or passages of the source. A value given as a limit tells only on which side of the number the result lay.

For one test, the target named is T1, AA (Homo sapiens, UniProt O14965).
T1 sequence (O14965 1-403): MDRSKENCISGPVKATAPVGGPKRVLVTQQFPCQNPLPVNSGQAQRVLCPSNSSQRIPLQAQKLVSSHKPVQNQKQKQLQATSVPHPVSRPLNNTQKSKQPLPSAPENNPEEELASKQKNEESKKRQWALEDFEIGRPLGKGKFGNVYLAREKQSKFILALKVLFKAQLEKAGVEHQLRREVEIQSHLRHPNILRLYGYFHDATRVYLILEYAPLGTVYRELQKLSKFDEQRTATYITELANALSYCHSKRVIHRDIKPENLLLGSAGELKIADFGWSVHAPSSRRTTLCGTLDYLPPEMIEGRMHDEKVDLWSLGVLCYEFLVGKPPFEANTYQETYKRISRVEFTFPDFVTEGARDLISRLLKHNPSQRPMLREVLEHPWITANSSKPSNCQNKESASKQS
The test is described as follows: AA IC50 (Table 1; no method given). The class given is biochemical.

The target of the next test is PLK1 (Homo sapiens, UniProt P53350). The test is described as follows: PLK1 protein kinase assay (CDC25C phosphorylation, [γ-32P]-ATP). It counts as biochemical. The conditions noted are these: read-out: PLK1 IC50.
Chain of PLK1 (P53350 whole entry): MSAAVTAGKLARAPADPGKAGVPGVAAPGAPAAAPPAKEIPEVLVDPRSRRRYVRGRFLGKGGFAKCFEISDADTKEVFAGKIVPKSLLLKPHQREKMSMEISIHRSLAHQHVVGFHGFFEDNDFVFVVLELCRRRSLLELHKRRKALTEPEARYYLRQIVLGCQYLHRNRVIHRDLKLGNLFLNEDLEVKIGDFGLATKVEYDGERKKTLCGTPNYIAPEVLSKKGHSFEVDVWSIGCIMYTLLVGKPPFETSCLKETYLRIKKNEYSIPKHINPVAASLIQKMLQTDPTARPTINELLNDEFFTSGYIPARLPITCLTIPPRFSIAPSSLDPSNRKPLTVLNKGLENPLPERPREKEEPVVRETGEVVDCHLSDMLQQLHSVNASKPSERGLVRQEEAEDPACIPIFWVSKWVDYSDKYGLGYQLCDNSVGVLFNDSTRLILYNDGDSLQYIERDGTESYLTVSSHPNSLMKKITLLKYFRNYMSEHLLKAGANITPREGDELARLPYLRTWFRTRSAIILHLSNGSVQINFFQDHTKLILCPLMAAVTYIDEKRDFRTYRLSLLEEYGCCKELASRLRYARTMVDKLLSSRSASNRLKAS
The mark [1] stands for this setting: Table 2, AurA IC50, class symbols, read-out: AurA IC50.
The mark [2] stands for this setting: Table 2, PLK1 IC50, class symbols.

For the compound `CNC(=O)c1ccc(Nc2ncc3c(n2)N(C2CCCC2)CCC(=O)N3C)c(OC)c1` [compound 87, 4-(9-Cyclopentyl-5-methyl-6-oxo-6,7,8,9-tetrahydro-5H-pyrimido[4,5-b][1,4]diazepin-2-ylamino)-3-methoxy-N-methyl-benzamide], the 50% inhibitory concentration (IC50) (as a rule, the midpoint of a concentration-inhibition curve) is less than 10 µM at AA (setting [1]) and less than 0.1 µM on PLK1 (setting [2]).

As to `CN1C(=O)CCN(C2CCCC2)c2nc(Nc3cccc(S(N)(=O)=O)c3)ncc21` [compound 53, 3-(9-Cyclopentyl-5-methyl-6-oxo-6,7,8,9-tetrahydro-5H-pyrimido[4,5-b][1,4]diazepin-2-ylamino)-benzenesulfonamide], the IC50 at AA (setting [1]) and at PLK1 (setting [2]) was less than 1 µM in each case.

Consider `COCCNS(=O)(=O)c1ccc(Nc2ncc3c(n2)N(C2CCCC2)CCC(=O)N3C)cc1` [compound 104, 4-(9-Cyclopentyl-5-methyl-6-oxo-6,7,8,9-tetrahydro-5H-pyrimido[4,5-b][1,4]diazepin-2-ylamino)-N-(2-methoxy-ethyl)-benzenesulfonamide], for which the values for the IC50 at AA (setting [1]) and at PLK1 (setting [2]) were less than 0.1 µM and less than 10 µM, respectively.

In the case of `CN1C(=O)CCN(C2CCCC2)c2nc(Nc3ccc4c(c3)NC(=O)CO4)ncc21` [compound 295, 9-Cyclopentyl-5-methyl-2-(3-oxo-3,4-dihydro-2H-benzo[1,4]oxazin-6-ylamino)-5,7,8,9-tetrahydro-pyrimido[4,5-13][1,4]diazepin-6-one], the concentration for half-maximal inhibition (IC50) at AA (setting [1]) is less than 0.1 µM; at PLK1 (setting [2]), less than 10 µM.

With `CN1CCC(NS(=O)(=O)c2cccc(Nc3ncc4c(n3)N(C3CCCC3)CCC(=O)N4C)c2)CC1` [compound 103, 3-(9-Cyclopentyl-5-methyl-6-oxo-6,7,8,9-tetrahydro-5H-pyrimido[4,5-b][1,4]diazepin-2-ylamino)-N-(1-methyl-piperidin-4-yl)-benzenesulfonamide], the half-inhibitory concentration (IC50) is less than 1 µM on AA (setting [1]) and less than 10 µM on PLK1 (setting [2]).

On to `CN1C(=O)C2(CCC2)CN(C2CCCC2)c2nc(Nc3ccc4c(c3)CS(=O)(=O)C4)ncc21` [compound 117, (9-Cyclopentyl-2-(2,2-dioxo-2,3-dihydro-1H-2lambda*6*-benzo[c]thiophen-5-ylamino)5-methyl-6-oxo-6,7,8,9-tetrahydro-5H-spiro[pyrimido[4,5-b][1,4]diazepin-3,1′-cyclobutane+], for which the IC50 on AA (setting [1]) and on PLK1 (setting [2]) was less than 1 µM in each case.

Take `COc1cc(C(=O)NCCCCO)ccc1Nc1ncc2c(n1)N(C1CCCC1)CCC(=O)N2C` [compound 151, 4-(9-Cyclopentyl-5-methyl-6-oxo-6,7,8,9-tetrahydro-5H-pyrimido[4,5-b][1,4]diazepin-2-ylamino)-N-(4-hydroxy-butyl)-3-methoxy-benzamide]: the values for the IC50 at AA (setting [1]) and on PLK1 (setting [2]) were less than 10 µM and less than 1 µM, respectively.

Turning to `Cc1ccc(N2CCC(=O)N(C)c3cnc(Nc4ccc(NC(=O)C5CC5)c(C)c4)nc32)cc1` [compound 291, Cyclopropanecarboxylic acid [2-methyl-4-(5-methyl-6-oxo-9-p-tolyl-6,7,8,9-tetrahydro-5H-pyrimido[4,5-b][1,4]diazepin-2-ylamino)-phenyl]-amide], the IC50 is less than 0.1 µM on AA (setting [1]) and less than 10 µM at PLK1 (setting [2]).

Turning to `CN1C(=O)CCN(C2CCCC2)c2nc(Nc3cccc(S(=O)(=O)N4CCCC4)c3)ncc21` [compound 109, 9-Cyclopentyl-5-methyl-2-[3-(pyrrolidine-1-sulfonyl)-phenylamino]-5,7,8,9-tetrahydro-pyrimido[4,5-b][1,4]diazepin-6-one], the IC50 at AA (setting [1]) and at PLK1 (setting [2]) was less than 1 µM each time.

On to `CC(=O)NCc1cccc(Nc2ncc3c(n2)N(C2CCCC2)CCC(=O)N3C)c1` [compound 90, N-[3-(9-Cyclopentyl-5-methyl-6-oxo-6,7,8,9-tetrahydro-5H-pyrimido[4,5-b][1,4]diazepin-2-ylamino)-benzyl]-acetamide], for which the IC50 at AA (setting [1]) is less than 1 µM; on PLK1 (setting [2]) it was less than 10 µM.

With `CN1C(=O)CCN(C2CCCC2)c2nc(Nc3ccc(C(=O)O)cc3)ncc21` [compound 54, 4-(9-Cyclopentyl-5-methyl-6-oxo-6,7,8,9-tetrahydro-5H-pyrimido[4,5-b][1,4]diazepin-2-ylamino)-benzoic acid], the concentration for half-maximal inhibition (IC50) at AA (setting [1]) and at PLK1 (setting [2]) was less than 0.1 µM in each case.

As for `CN1C(=O)CCN(C2CCCC2)c2nc(Nc3ccc4sc(C(=O)O)cc4c3)ncc21` [compound 292, 5-(9-Cyclopentyl-5-methyl-6-oxo-6,7,8,9-tetrahydro-5H-pyrimido[4,5-b][1,4]diazepin-2-ylamino)-benzo[b]thiophene-2-carboxylic acid], the IC50 on AA (setting [1]) is less than 0.1 µM; on PLK1 (setting [2]), less than 1 µM.

For `CN1C(=O)CCN(C2CCCC2)c2nc(Nc3ccc(C(=O)N4CCOCC4)cc3)ncc21` [compound 297, 9-Cyclopentyl-5-methyl-2-[4-(morpholine-4-carbonyl)-phenylamino]-5,7,8,9-tetrahydro-pyrimido[4,5-b][1,4]diazepin-6-one], the results for the IC50 at AA (setting [1]) and on PLK1 (setting [2]) were less than 0.1 µM and less than 10 µM, respectively.

`CN1CCC(NC(=O)Cc2ccc(Nc3ncc4c(n3)N(C3CCCC3)CCC(=O)N4C)cc2)CC1` [compound 181, 2-[4-(9-Cyclopentyl-5-methyl-6-oxo-6,7,8,9-tetrahydro-5H-pyrimido[4,5-b][1,4]diazepin-2-ylamino)-phenyl]-N-(1-methyl-piperidin-4-yl)-acetamide]: the concentration for half-maximal inhibition (IC50) on AA (setting [1]) is less than 0.1 µM; at PLK1 (setting [2]) it was less than 10 µM.

Consider `CN1C(=O)CCN(C2CCCC2)c2nc(Nc3ccc4c(c3)NC(=O)CO4)ncc21` [compound 299, 9-Cyclopentyl-5-methyl-2-(3-oxo-3,4-dihydro-2H-benzo[1,4]oxazin-6-ylarnino)-5,7,8,9-tetrahydro-pyrimido[4,5-b][1,4]diazepin-6-one], for which the IC50 at AA (setting [1]) is less than 0.1 µM; at PLK1 (setting [2]), less than 10 µM.

For the compound `CN1C(=O)CCN(C2CCCC2)c2nc(Nc3ccc(S(=O)(=O)N(C)C)cc3)ncc21` [compound 300, 4-(9-Cyclopentyl-5-methyl-6-oxo-6,7,8,9-tetrahydro-5H-pyrimido[4,5-b][1,4]diazepin-2-ylamino)-N,N-dimethyl-benzenesulfonamide], the IC50 at AA (setting [1]) is less than 0.1 µM; on PLK1 (setting [2]), less than 10 µM.

Consider `CC1CN(C2CCCC2)c2nc(Nc3ccc(C(=O)NC4CCN(C)CC4)cc3)ncc2NC1=O` (stereo not shown) [compound 18, 4-(9-Cyclopentyl-7-methyl-6-oxo-6,7,8,9-tetrahydro-5H-pyrimido[4,5-b][1,4]diazepin-2-ylamino)-N-(1-methyl-piperidin-4-yl)-benzamide], for which the half-inhibitory concentration (IC50) on AA (Table 1, read-out: AA IC50) is 1 to 10 µM; on PLK1 (Table 1), less than 10 µM.

Take `CN1C(=O)CCN(C2CCCC2)c2nc(Nc3ccc4c(c3)CC(=O)N4)ncc21` [compound 173, 9-Cyclopentyl-5-methyl-2-(2-oxo-2,3-dihydro-1H-indo1-5-ylamino)-5,7,8,9-tetrahydro-pyrimido[4,5-b][1,4]diazepin-6-one]: the half-maximal inhibitory concentration (IC50) on AA (setting [1]) is less than 0.1 µM; on PLK1 (setting [2]), less than 10 µM.

Regarding `CN1C(=O)CCN(C2CCCC2)c2nc(Nc3ccc(S(=O)(=O)N4CCOCC4)cc3)ncc21` [compound 47, 9-Cyclopentyl-5-methyl-2-[4-(morpholine-4-sulfonyl)-phenylamino]-5,7,8,9-tetrahydro-pyrimido[4,5-b][1,4]diazepin-6-one], the IC50 on AA (setting [1]) was less than 0.1 µM; at PLK1 (setting [2]), less than 10 µM.

Take `CN(C)C(=O)c1ccc(Nc2ncc3c(n2)N(C2CCCC2)CCC(=O)N3C)cc1` [compound 85, 4-(9-Cyclopentyl-5-methyl-6-oxo-6,7,8,9-tetrahydro-5H-pyrimido[4,5-b][1,4]diazepin-2-ylamino)-N,N-dimethyl-benzamide]: the 50% inhibitory concentration (IC50) at AA (setting [1]) is less than 0.1 µM; on PLK1 (setting [2]), less than 10 µM.

As for `CN1C(=O)CCN(C2CCCC2)c2nc(NCc3ccco3)ncc21` [compound 124, 9-Cyclopentyl-2-[(furan-2-ylmethyl)-amino]-5-methyl-5,7,8,9-tetrahydro-pyrimido[4,5-b][1,4]diazepin-6-one], the IC50 at AA (setting [1]) and at PLK1 (setting [2]) was less than 10 µM each time.

Turning to `CN1C(=O)CCN(c2ccccc2F)c2nc(Nc3ccc(C(=O)O)cc3)ncc21` [compound 50, 4-[9-(2-Fluoro-phenyl)-5-methyl-6-oxo-6,7,8,9-tetrahydro-5H-pyrimido[4,5-b][1,4]diazepin-2-ylamino]-benzoic acid], the half-maximal inhibitory concentration (IC50) is less than 0.1 µM on AA (setting [1]) and less than 10 µM at PLK1 (setting [2]).

As for `CN1C(=O)CCN(C2CCCC2)c2nc(Nc3ccc4cc[nH]c4c3)ncc21` [compound 130, 9-Cyclopentyl-2-(1H-indo1-6-ylamino)-5-methyl-5,7,8,9-tetrahydro-pyrimido[4,5-b][1,4]diazepin-6-one], the figures for the IC50 on AA (setting [1]) and on PLK1 (setting [2]) were less than 1 µM and less than 10 µM, respectively.

As to `CC(Cc1c[nH]c2ccccc12)Nc1ncc2c(n1)N(C1CCCC1)CCC(=O)N2C` (stereo not shown) [compound 175, 9-Cyclopentyl-2-[2-(1H-indo1-3-yl)-1-methyl-ethylamino]-5-methyl-5,7,8,9-tetrahydro-pyrimido[4,5-b][1,4]diazepin-6-one], the concentration for half-maximal inhibition (IC50) on AA (setting [1]) is less than 10 µM.

Regarding `COc1cc(C(=O)NC2CCN(C)CC2)ccc1Nc1ncc2c(n1)N(Cc1ccc(OC)c(OC)c1)CC(C)C(=O)N2C` (stereo not shown) [compound 44, 4-[9-(3,4-Dimethoxy-benzyl)-5,7-dimethyl-6-oxo-6,7,8,9-tetrahydro-5H-pyrimido[4,5-b][1,4]diazepin-2-ylamino]-3-methoxy-N-(1-methyl-piperidin-4-yl)-benzamide], the IC50 at AA (setting [1]) is less than 10 µM.

Regarding `Cc1cc(Nc2ncc3c(n2)N(c2ccc(C(C)(C)C)cc2)CCC(=O)N3C)ccc1NC(=O)C1CC1` [compound 342], the half-maximal inhibitory concentration (IC50) on AA (setting [1]) was less than 10 µM.
